Values of other authors in patent publication US20240252403A1, “SKIN CARE COMPOSITION FOR APPLICATION TO SKIN” (COSMED PHARMACEUTICAL CO., LTD., priority 2021, published 2024).

Row | saturation solubility [g/100 g] | Structure (SMILES)
1 | 13.0 | N[C@@H](CCC(=O)N[C@@H](CS)C(=O)NCC(=O)O)C(=O)O [glutathione]
2 | 7.9 | NCCS(=O)(=O)O [taurine]

Row | Structure (SMILES) | saturation solubility [g/100 g]
3 | Cc1ncc(CO)c(CO)c1O.Cl [pyridoxine hydrochloride] | 22.0
